In this test the target is T1, SIRT1 (Homo sapiens, UniProt Q96EB6).
T1 sequence (Q96EB6 1-747): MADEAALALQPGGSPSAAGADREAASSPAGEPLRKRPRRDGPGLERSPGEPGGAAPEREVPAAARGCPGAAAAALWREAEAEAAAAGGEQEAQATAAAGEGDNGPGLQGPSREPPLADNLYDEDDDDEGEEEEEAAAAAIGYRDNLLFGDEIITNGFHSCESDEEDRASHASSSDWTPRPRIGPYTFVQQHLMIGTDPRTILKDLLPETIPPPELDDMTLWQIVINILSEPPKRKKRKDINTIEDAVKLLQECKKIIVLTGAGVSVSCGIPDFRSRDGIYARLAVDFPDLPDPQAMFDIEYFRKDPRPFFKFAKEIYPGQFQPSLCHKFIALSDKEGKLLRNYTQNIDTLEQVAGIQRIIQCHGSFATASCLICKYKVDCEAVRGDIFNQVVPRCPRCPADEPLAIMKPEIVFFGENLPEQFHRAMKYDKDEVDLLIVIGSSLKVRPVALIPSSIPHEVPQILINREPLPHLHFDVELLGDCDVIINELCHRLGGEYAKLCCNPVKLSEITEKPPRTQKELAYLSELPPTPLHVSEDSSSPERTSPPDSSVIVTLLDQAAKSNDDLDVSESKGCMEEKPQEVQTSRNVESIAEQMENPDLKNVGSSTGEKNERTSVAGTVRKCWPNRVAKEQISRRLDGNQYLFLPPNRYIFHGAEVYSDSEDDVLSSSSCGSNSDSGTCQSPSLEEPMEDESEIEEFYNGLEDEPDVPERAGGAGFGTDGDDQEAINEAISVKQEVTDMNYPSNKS
The experiment in a line: Trp mass spectrometry assay (SIRT1 activation). It counts as biochemical. The following applies: Trp mass spectrometry assay; for Tryp AVG EC1.5 (μM): EC1.5 = concentration of test compound that results in 150% activation of SIRT1; for Emax: percent maximum fold activation of SIRT1, read-out: Tryp % Fold Act. The method in brief: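 Activation is expressed as EC1.5, the concentration raising activity 50% above DMSO control, and as maximum percent of control. Mass-spec readout was OAADPR or deacetylated Trp peptide after a formic-acid-quenched 25-min, 25 °C reaction: 10 nM bacterially expressed His-SIRT1, 0.5 μM acetyl-p53-derived peptide, 120 μM NAD+, pH 7.5 HEPES with […].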

With `O=C(Nc1ccccn1)N1c2nc(-c3cccc(C(F)(F)F)c3)ccc2N2CCC1CC2` [Example 158], the “Tryp AVG EC1.5 (μM)” value is reported as “B (EC1.5 1-25 μM)” and the Emax is at least 150%.
On the same counts, the results for `COc1cc(-c2cccc(C(F)(F)F)c2)nc2c1N1CC[C@@H](C1)N2C(=O)Nc1ccccn1` [Example 159] are “A (EC1.5<1 μM)” and at least 150%.
On the same counts, the results for `COc1cc(-c2cccc(C(F)(F)F)c2)nc2c1N1CC[C@@H](C1)N2C(=O)Nc1ccncc1` [Example 160] are “A (EC1.5<1 μM)” and at least 150%.
Consider `COc1cc(-c2cccc(C(F)(F)F)c2)nc2c1N1CC[C@@H](C1)N2C(=O)Nc1nc(C)c(C)s1` [Example 161], for which the “Tryp AVG EC1.5 (μM)” value was “A (EC1.5<1 μM)” and the Emax was at least 150%.
On the same counts, the results for `O=C(Nc1cccc(-c2cnco2)c1)N1c2nc(-c3cccc(OC(F)(F)F)c3)ccc2N2CC[C@H]1C2` [Example 162] are “A (EC1.5<1 μM)” and at least 150%.
On the same counts, the results for `O=C(Nc1cccnc1)N1c2nc(-c3cccc(OC(F)(F)F)c3)ccc2N2CC[C@H]1C2` [Example 163] are “A (EC1.5<1 μM)” and at least 150%.
In the case of `O=C(Nc1cnccn1)N1c2nc(-c3cccc(OC(F)(F)F)c3)ccc2N2CC[C@H]1C2` [Example 164], the “Tryp AVG EC1.5 (μM)” value is recorded as “A (EC1.5<1 μM)” and the Emax is at least 150%.
For `Cc1nc(NC(=O)N2c3nc(-c4cccc(OC(F)(F)F)c4)ccc3N3CC[C@H]2C3)sc1C` [Example 165], in that order: “A (EC1.5<1 μM)” and at least 150%.
Regarding `O=C(Nc1ccncn1)N1c2nc(-c3cccc(OC(F)(F)F)c3)ccc2N2CC[C@H]1C2` [Example 166], the “Tryp AVG EC1.5 (μM)” value is “A (EC1.5<1 μM)” and the Emax was at least 150%.
For `Cn1cc(NC(=O)N2c3nc(-c4cccc(OC(F)(F)F)c4)ccc3N3CC[C@H]2C3)cn1` [Example 167], in that order: “B (EC1.5 1-25 μM)” and at least 150%.
With `COc1cc(NC(=O)N2c3nc(-c4cccc(C(F)(F)F)c4)ccc3N3CCC2CC3)ncn1` [Example 168], the “Tryp AVG EC1.5 (μM)” value was “A (EC1.5<1 μM)” and the Emax is at least 150%.
In the case of `COc1nccc(NC(=O)N2c3nc(-c4cccc(C(F)(F)F)c4)ccc3N3CCC2CC3)n1` [Example 169], the “Tryp AVG EC1.5 (μM)” value was “B (EC1.5 1-25 μM)” and the Emax is at least 150%.
For `COc1cc(NC(=O)N2c3nc(-c4cccc(C(F)(F)F)c4)ccc3N3CCC2CC3)nc(OC)n1` [Example 170], in that order: “A (EC1.5<1 μM)” and at least 150%.
As to `O=C(Nc1cccnn1)N1c2nc(-c3cccc(C(F)(F)F)c3)ccc2N2CCC1CC2` [Example 171], the “Tryp AVG EC1.5 (μM)” value was “B (EC1.5 1-25 μM)” and the Emax is at least 150%.
On the same counts, the results for `O=C(Nc1ccncn1)N1c2nc(-c3cccc(C(F)(F)F)c3)ccc2N2CCC1CC2` [Example 172] are “B (EC1.5 1-25 μM)” and at least 150%.
On the same counts, the results for `Cc1nc(NC(=O)N2c3nc(-c4cccc(C(F)(F)F)c4)ccc3N3CCC2CC3)sc1C` [Example 173] are “A (EC1.5<1 μM)” and at least 150%.
For the molecule `O=C(Nc1cncc(F)c1)N1c2nc(-c3cccc(OC(F)(F)F)c3)ccc2N2CC[C@H]1C2` [Example 174], the “Tryp AVG EC1.5 (μM)” value is recorded as “A (EC1.5<1 μM)” and the Emax is at least 150%.
Turning to `Cn1ncc2cc(NC(=O)N3c4nc(-c5cccc(OC(F)(F)F)c5)ccc4N4CC[C@H]3C4)ccc21` [Example 175], the “Tryp AVG EC1.5 (μM)” value was “A (EC1.5<1 μM)” and the Emax is at least 150%.
Consider `COc1nccc(NC(=O)N2c3nc(-c4cccc(OC(F)(F)F)c4)ccc3N3CC[C@H]2C3)n1` [Example 176], for which the “Tryp AVG EC1.5 (μM)” value was “A (EC1.5<1 μM)” and the Emax is at least 150%.
For `Cn1ccc(NC(=O)N2c3nc(-c4cccc(OC(F)(F)F)c4)ccc3N3CC[C@H]2C3)n1` [Example 177], the “Tryp AVG EC1.5 (μM)” value was “A (EC1.5<1 μM)” and the Emax was at least 150%.
With `N#Cc1cccc(-c2ccc3c(n2)N(C(=O)Nc2cccc(-c4cnco4)c2)[C@H]2CCN3C2)c1` [Example 178], the “Tryp AVG EC1.5 (μM)” value is reported as “A (EC1.5<1 μM)” and the Emax is at least 150%.
On the same counts, the results for `Cc1nc(NC(=O)N2c3nc(-c4cccc(C#N)c4)ccc3N3CC[C@H]2C3)sc1C` [Example 179] are “A (EC1.5<1 μM)” and at least 150%.
For `N#Cc1cccc(-c2ccc3c(n2)N(C(=O)Nc2cccnc2)[C@H]2CCN3C2)c1` [Example 180], in that order: “A (EC1.5<1 μM)” and at least 150%.
For `N#Cc1cccc(-c2ccc3c(n2)N(C(=O)Nc2ccncn2)[C@H]2CCN3C2)c1` [Example 181], in that order: “A (EC1.5<1 μM)” and at least 150%.
On to `N#Cc1cccc(-c2ccc3c(n2)N(C(=O)Nc2cncc(F)c2)[C@H]2CCN3C2)c1` [Example 182], for which the “Tryp AVG EC1.5 (μM)” value was “A (EC1.5<1 μM)” and the Emax is at least 150%.
`COc1nccc(NC(=O)N2c3nc(-c4cccc(C#N)c4)ccc3N3CC[C@H]2C3)n1` [Example 183]: the “Tryp AVG EC1.5 (μM)” value was “B (EC1.5 1-25 μM)” and the Emax was at least 150%.
As for `Cn1ncc2cc(NC(=O)N3c4nc(-c5cccc(C#N)c5)ccc4N4CC[C@H]3C4)ccc21` [Example 184], the “Tryp AVG EC1.5 (μM)” value is “A (EC1.5<1 μM)” and the Emax was at least 150%.
`Cn1ccc(NC(=O)N2c3nc(-c4cccc(C#N)c4)ccc3N3CC[C@H]2C3)n1` [Example 185]: the “Tryp AVG EC1.5 (μM)” value is given as “B (EC1.5 1-25 μM)” and the Emax is at least 150%.
With `Cn1cc(NC(=O)N2c3nc(-c4cccc(C#N)c4)ccc3N3CC[C@H]2C3)cn1` [Example 186], the “Tryp AVG EC1.5 (μM)” value is recorded as “B (EC1.5 1-25 μM)” and the Emax was at least 150%.
On the same counts, the results for `Cc1nc(NC(=O)N2c3nc(-c4cccc(N5CCCC5)c4)ccc3N3CC[C@H]2C3)sc1C` [Example 187] are “B (EC1.5 1-25 μM)” and at least 150%.
For `COc1nccc(NC(=O)N2c3nc(-c4cccc(N5CCCC5)c4)ccc3N3CC[C@H]2C3)n1` [Example 188], the “Tryp AVG EC1.5 (μM)” value is “B (EC1.5 1-25 μM)” and the Emax is at least 150%.
On the same counts, the results for `N#Cc1cccc(-c2ccc3c(n2)N(C(=O)Nc2cnccn2)[C@H]2CCN3C2)c1` [Example 189] are “A (EC1.5<1 μM)” and at least 150%.
For `COc1cncc(NC(=O)N2c3nc(-c4cccc(C#N)c4)ccc3N3CC[C@H]2C3)n1` [Example 190], the “Tryp AVG EC1.5 (μM)” value is given as “B (EC1.5 1-25 μM)” and the Emax was at least 150%.
For `O=C(Nc1cccc(-c2cnco2)c1)N1c2nc(-c3cccc(N4CCCC4)c3)ccc2N2CC[C@H]1C2` [Example 191], the “Tryp AVG EC1.5 (μM)” value is “A (EC1.5<1 μM)” and the Emax is at least 150%.
On the same counts, the results for `O=C(Nc1cccnc1)N1c2nc(-c3cccc(N4CCCC4)c3)ccc2N2CC[C@H]1C2` [Example 192] are “B (EC1.5 1-25 μM)” and at least 150%.
On the same counts, the results for `O=C(Nc1ccncn1)N1c2nc(-c3cccc(N4CCCC4)c3)ccc2N2CC[C@H]1C2` [Example 193] are “B (EC1.5 1-25 μM)” and at least 150%.
